Measured values taken from ChEMBL document CHEMBL1201862, “PubChem BioAssay data set” (2004).
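How tested: cells in 96-well plates exposed to compound for 48 hours at five concentrations. GI50 marks 50% less growth.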 The source made the active and inactive calls. Cut-off read from the data, not from the text of the source: active = GI50 up to about 1.1 µM and inactive = higher.

Experiments:
Assay in all cases: inhibition of tumour cell growth, NCI panel, 48 h
CAKI-1 = tested on: CAKI-1
COLO 205 = tested on: COLO 205
DU-145 = tested on: DU-145
HL-60 = tested on: HL-60
HOP-62 = tested on: HOP-62
MOLT-4 = tested on: MOLT-4
Malme-3M = tested on: Malme-3M
NCI-H226 = tested on: NCI-H226
NCI/ADR-RES = tested on: NCI/ADR-RES
OVCAR-3 = tested on: OVCAR-3
OVCAR-4 = tested on: OVCAR-4
RXF 393 = tested on: RXF 393
SF-295 = tested on: SF-295
SK-OV-3 = tested on: SK-OV-3
SN12C = tested on: SN12C
SNB-75 = tested on: SNB-75
U-251 = tested on: U-251
HCC 2998 = tested on: HCC 2998

Measured: GI50

O=C(O)c1cc(-c2ccc(-c3ccccc3)cc2)nc2cc3ccccc3cc12
inactive: CAKI-1 42 µM | COLO 205 54.7 µM | DU-145 66.8 µM | HL-60 19.1 µM | HOP-62 30.3 µM | MOLT-4 11.6 µM | Malme-3M 84.5 µM | NCI-H226 35.7 µM | NCI/ADR-RES 75.7 µM | OVCAR-3 47.9 µM | OVCAR-4 29.4 µM | RXF 393 27.7 µM | SF-295 34.8 µM | SK-OV-3 > 100 µM | SN12C 61.9 µM | SNB-75 29.2 µM | U-251 20.7 µM

COc1ccc(NC(=S)N/N=C/c2c(C)n(C)n(-c3ccccc3)c2=O)cc1
inactive: CAKI-1 22 µM | COLO 205 > 100 µM | HCC 2998 > 100 µM | HL-60 > 100 µM | HOP-62 19.4 µM | MOLT-4 > 100 µM | NCI-H226 35.6 µM | NCI/ADR-RES 42.9 µM | OVCAR-4 19.1 µM | RXF 393 23 µM | SF-295 37.9 µM | SK-OV-3 28.6 µM | SNB-75 28 µM | U-251 20.4 µM

Cc1ccc(C)c(NC(=O)C(=O)C2C(=O)N(c3ccccc3)N=C2N)c1 (configuration not stated)
inactive: CAKI-1 > 100 µM | HCC 2998 > 100 µM | HL-60 31.7 µM | HOP-62 > 100 µM | MOLT-4 > 100 µM | Malme-3M > 100 µM | NCI-H226 > 100 µM | OVCAR-3 > 100 µM | OVCAR-4 > 100 µM | RXF 393 > 100 µM | SF-295 > 100 µM | SN12C > 100 µM | SNB-75 > 100 µM | U-251 > 100 µM

O=C1C=CC(=C(c2ccccc2)c2ccc(O)cc2)C=C1
inactive: CAKI-1 17.3 µM | COLO 205 14.9 µM | DU-145 17.4 µM | HCC 2998 31.1 µM | HL-60 8.15 µM | HOP-62 21.9 µM | MOLT-4 3.33 µM | Malme-3M 13.6 µM | NCI-H226 19.5 µM | NCI/ADR-RES 32.7 µM | OVCAR-3 16.2 µM | OVCAR-4 14.3 µM | RXF 393 14.2 µM | SF-295 19.4 µM | SN12C 13.6 µM | SNB-75 16.9 µM | U-251 12.4 µM

CC(C)(C)OC(=O)N1CCCC1C(=O)NCCNc1ccc(NCCNC(=O)C2CCCN2C(=O)OC(C)(C)C)c2c1C(=O)c1ccccc1C2=O (configuration not stated)
inactive: CAKI-1 18.5 µM | COLO 205 14.4 µM | HCC 2998 13 µM | HL-60 > 100 µM | HOP-62 15.4 µM | MOLT-4 9.86 µM | Malme-3M 15.1 µM | NCI-H226 18.5 µM | NCI/ADR-RES 10.4 µM | OVCAR-3 14.1 µM | OVCAR-4 15 µM | SF-295 18 µM | SK-OV-3 19.7 µM | SNB-75 20.4 µM | U-251 18.8 µM
